The values below are quoted from earlier work in EP0788741B1 (priority 1996, dated 1997).

SMILES strings stand for the structures.

In this data set the test system is Australorbis Glabratus. Conditions: Public Health Report, Vol. 82, No. 9; cited from earlier work.

`CCCCCCCCCCCCCN(C)C.CCCCCCCCCCCCCN(C)C.O=C(O)C1C2CCC(O2)C1C(=O)O` [di (N,N-dimethyltridecylamine) salt of Endothall]: the “concentration effective to kill Puerto Rican snails” value is reported as 5 ppm.

`CCCCCCCCCCCCCN(C)C.O=C(O)C1C2CCC(O2)C1C(=O)O` [mono (N,N-dimethyltridecylamine) salt of Endothall]: the “concentration effective to kill Puerto Rican snails” value is recorded as 10 ppm.
